{"source": "paper PMC5749554", "about": "(Drug Design, Development and Therapy, 2017)", "type_in_all_cases": "biochemical", "conditions_in_all_cases": "liver microsomes", "key": {"[1]": {"target": "T1, CYP2C9 (HLM) (Homo sapiens, UniProt P11712)", "T1 sequence (P11712 whole entry)": "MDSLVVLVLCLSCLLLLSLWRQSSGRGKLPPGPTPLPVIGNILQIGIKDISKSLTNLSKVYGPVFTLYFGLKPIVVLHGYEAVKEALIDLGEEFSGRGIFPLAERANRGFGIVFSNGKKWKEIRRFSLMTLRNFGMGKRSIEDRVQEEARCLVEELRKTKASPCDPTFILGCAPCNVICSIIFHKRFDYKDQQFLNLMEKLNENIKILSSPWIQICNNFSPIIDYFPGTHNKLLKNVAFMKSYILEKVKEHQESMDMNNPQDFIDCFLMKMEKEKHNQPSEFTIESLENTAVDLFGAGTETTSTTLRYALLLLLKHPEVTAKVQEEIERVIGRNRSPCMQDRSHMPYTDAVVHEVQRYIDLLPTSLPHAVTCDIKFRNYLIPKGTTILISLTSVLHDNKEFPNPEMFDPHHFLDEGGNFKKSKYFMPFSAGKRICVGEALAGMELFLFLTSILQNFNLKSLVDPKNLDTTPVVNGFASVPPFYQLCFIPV", "assay": "cocktail probe-substrate assay, HPLC"}, "[2]": {"target": "CYP2E1 (HLM) (Homo sapiens, UniProt P05181)", "sequence (P05181 whole entry)": "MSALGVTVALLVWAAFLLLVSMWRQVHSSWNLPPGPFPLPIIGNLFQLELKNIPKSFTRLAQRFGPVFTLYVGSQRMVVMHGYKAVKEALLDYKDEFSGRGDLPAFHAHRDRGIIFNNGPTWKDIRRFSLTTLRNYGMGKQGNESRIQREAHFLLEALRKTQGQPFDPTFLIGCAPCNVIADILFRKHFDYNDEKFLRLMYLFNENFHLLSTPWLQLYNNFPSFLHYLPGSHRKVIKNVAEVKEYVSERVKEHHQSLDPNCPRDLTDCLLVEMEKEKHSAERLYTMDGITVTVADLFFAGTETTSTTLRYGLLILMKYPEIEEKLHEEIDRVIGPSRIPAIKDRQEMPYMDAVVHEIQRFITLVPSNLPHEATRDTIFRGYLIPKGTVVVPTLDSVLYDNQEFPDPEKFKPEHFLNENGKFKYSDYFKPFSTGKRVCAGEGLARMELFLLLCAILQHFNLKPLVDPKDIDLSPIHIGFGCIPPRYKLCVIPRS", "assay": "cocktail probe-substrate assay, HPLC"}, "[3]": {"target": "T2, CYP1A2 (HLM) (Homo sapiens, UniProt P05177)", "T2 sequence (P05177 2-516)": "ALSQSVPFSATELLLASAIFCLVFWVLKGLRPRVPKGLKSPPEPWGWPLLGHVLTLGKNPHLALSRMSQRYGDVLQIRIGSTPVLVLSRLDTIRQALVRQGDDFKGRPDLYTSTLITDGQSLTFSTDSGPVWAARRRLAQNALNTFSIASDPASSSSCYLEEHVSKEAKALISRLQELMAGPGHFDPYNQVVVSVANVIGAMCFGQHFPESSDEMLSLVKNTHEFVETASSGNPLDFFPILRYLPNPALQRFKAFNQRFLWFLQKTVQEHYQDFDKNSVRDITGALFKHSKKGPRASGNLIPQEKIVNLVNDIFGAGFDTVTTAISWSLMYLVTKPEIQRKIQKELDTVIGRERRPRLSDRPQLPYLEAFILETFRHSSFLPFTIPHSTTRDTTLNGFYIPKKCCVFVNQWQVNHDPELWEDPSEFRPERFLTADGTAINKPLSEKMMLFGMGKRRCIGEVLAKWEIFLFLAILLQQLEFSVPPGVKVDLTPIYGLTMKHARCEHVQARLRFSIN", "assay": "cocktail probe-substrate assay, HPLC"}, "[4]": {"target": "T3, CYP2D6 (HLM) (Homo sapiens, UniProt P10635)", "T3 sequence (P10635 whole entry)": "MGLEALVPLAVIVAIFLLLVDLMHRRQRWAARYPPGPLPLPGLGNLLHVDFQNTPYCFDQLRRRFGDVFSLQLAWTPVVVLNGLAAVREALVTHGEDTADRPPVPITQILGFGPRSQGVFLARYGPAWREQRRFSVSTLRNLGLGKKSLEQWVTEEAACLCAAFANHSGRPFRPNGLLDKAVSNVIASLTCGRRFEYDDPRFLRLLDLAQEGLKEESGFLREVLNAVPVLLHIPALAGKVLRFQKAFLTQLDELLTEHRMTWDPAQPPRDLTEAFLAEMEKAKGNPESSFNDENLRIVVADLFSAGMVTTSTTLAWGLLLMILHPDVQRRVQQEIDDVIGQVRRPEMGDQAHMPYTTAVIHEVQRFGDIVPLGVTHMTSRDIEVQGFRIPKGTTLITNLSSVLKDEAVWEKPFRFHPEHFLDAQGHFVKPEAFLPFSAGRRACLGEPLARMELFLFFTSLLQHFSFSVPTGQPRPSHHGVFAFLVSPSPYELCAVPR", "assay": "HPLC-MS/MS of alpha-hydroxymetoprolol"}, "[5]": {"target": "T3, CYP2D6 (HLM)", "assay": "cocktail probe-substrate assay, HPLC"}, "[6]": {"target": "T1, CYP2C9 (HLM)", "assay": "HPLC-UV of 4-hydroxytolbutamide"}, "[7]": {"target": "CYP3A4 (HLM) (Homo sapiens, UniProt P08684)", "sequence (P08684 2-503)": "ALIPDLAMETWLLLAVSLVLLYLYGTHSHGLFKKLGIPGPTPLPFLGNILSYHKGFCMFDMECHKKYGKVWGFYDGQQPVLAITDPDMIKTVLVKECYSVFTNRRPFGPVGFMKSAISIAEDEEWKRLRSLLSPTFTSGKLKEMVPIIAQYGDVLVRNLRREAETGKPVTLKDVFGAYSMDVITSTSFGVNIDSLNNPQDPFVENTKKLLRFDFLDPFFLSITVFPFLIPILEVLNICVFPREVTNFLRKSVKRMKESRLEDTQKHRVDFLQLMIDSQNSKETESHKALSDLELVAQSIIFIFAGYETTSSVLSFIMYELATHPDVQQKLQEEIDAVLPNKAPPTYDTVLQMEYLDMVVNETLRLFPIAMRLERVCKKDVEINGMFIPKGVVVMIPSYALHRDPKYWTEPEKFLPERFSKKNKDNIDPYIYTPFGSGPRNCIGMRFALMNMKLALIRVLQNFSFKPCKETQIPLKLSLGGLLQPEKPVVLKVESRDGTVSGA", "assay": "cocktail probe-substrate assay, HPLC"}}, "data": [{"smiles": "COc1cc2c(cc1OC)-c1cc3ccc4c(c3c[n+]1CC2)OCO4", "note": "[Epiberberine]", "values": [{"measurement": "IC50", "setting": "[1]", "value": 8.18, "unit": "µM"}, {"measurement": "IC50", "setting": "[2]", "value": 66.3, "unit": "µM"}, {"measurement": "IC50", "setting": "[3]", "value": "> 100", "unit": "µM"}, {"measurement": "Ki", "setting": "[4]", "value": 25.4, "unit": "µM"}, {"measurement": "IC50", "setting": "[5]", "value": 11.9, "unit": "µM"}, {"measurement": "Ki", "setting": "[6]", "value": 5.64, "unit": "µM"}, {"measurement": "IC50", "setting": "[7]", "value": 81.5, "unit": "µM"}]}]}
